Measured values as given in PubChem BioAssay (NCI).
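Dose response: 5 concentrations. Exposure: 48 h. Format: 96-well plates. Endpoint: linear interpolation; highest concentration if not reached. TGI is the concentration that stops growth completely.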

Experiments:
Test in all cases: growth of human tumour cells (NCI), 48 h
786-0 renal = test system: 786-0 renal
A498 renal = test system: A498 renal
A549 NSCLC = test system: A549 NSCLC
ACHN renal = test system: ACHN renal
BT-549 breast = test system: BT-549 breast
CAKI-1 renal = test system: CAKI-1 renal
CCRF-CEM leukemia = test system: CCRF-CEM leukemia
COLO 205 colon = test system: COLO 205 colon
DU-145 prostate = test system: DU-145 prostate
EKVX NSCLC = test system: EKVX NSCLC
HCC-2998 colon = test system: HCC-2998 colon
HCT-116 colon = test system: HCT-116 colon
HCT-15 colon = test system: HCT-15 colon
HOP-62 NSCLC = test system: HOP-62 NSCLC
HOP-92 NSCLC = test system: HOP-92 NSCLC
HS 578T breast = test system: HS 578T breast
HT29 colon = test system: HT29 colon
IGROV1 ovarian = test system: IGROV1 ovarian
K-562 leukemia = test system: K-562 leukemia
KM12 colon = test system: KM12 colon
LOX IMVI melanoma = test system: LOX IMVI melanoma
M14 melanoma = test system: M14 melanoma
MALME-3M melanoma = test system: MALME-3M melanoma
MCF7 breast = test system: MCF7 breast
MDA-MB-231 breast = test system: MDA-MB-231 breast
MDA-MB-435 = test system: MDA-MB-435
MDA-N = test system: MDA-N
MOLT-4 leukemia = test system: MOLT-4 leukemia
NCI-H226 lung = test system: NCI-H226 lung
NCI-H23 lung = test system: NCI-H23 lung
NCI-H460 lung = test system: NCI-H460 lung
NCI-H522 lung = test system: NCI-H522 lung
NCI/ADR-RES ovarian = test system: NCI/ADR-RES ovarian
OVCAR-3 ovarian = test system: OVCAR-3 ovarian
OVCAR-4 ovarian = test system: OVCAR-4 ovarian
OVCAR-8 ovarian = test system: OVCAR-8 ovarian
PC-3 prostate = test system: PC-3 prostate
RPMI-8226 leukemia = test system: RPMI-8226 leukemia
SF-268 CNS = test system: SF-268 CNS
SF-295 CNS = test system: SF-295 CNS
SF-539 CNS = test system: SF-539 CNS
SK-MEL-2 melanoma = test system: SK-MEL-2 melanoma
SK-MEL-28 melanoma = test system: SK-MEL-28 melanoma
SK-MEL-5 melanoma = test system: SK-MEL-5 melanoma
SK-OV-3 ovarian = test system: SK-OV-3 ovarian
SN12C renal = test system: SN12C renal
SNB-19 CNS = test system: SNB-19 CNS
SR leukemia = test system: SR leukemia
SW-620 colon = test system: SW-620 colon
T-47D breast = test system: T-47D breast
TK-10 renal = test system: TK-10 renal
U251 CNS = test system: U251 CNS
UACC-257 melanoma = test system: UACC-257 melanoma
UACC-62 melanoma = test system: UACC-62 melanoma
UO-31 renal = test system: UO-31 renal
HL-60(TB) leukemia = test system: HL-60(TB) leukemia
OVCAR-5 ovarian = test system: OVCAR-5 ovarian
RXF 393 renal = test system: RXF 393 renal

SMILES: COc1ccc(OC)c2c1C=CC(Br)=CC2
- TGI (786-0 renal): 0.544 µM
- TGI (A498 renal): > 1 µM
- TGI (A549 NSCLC): > 1 µM
- TGI (ACHN renal): > 1 µM
- TGI (BT-549 breast): 0.835 µM
- TGI (CAKI-1 renal): 0.913 µM
- TGI (CCRF-CEM leukemia): > 1 µM
- TGI (COLO 205 colon): > 1 µM
- TGI (DU-145 prostate): > 1 µM
- TGI (EKVX NSCLC): > 1 µM
- TGI (HCC-2998 colon): 0.449 µM
- TGI (HCT-116 colon): 0.672 µM
- TGI (HCT-15 colon): 0.485 µM
- TGI (HOP-62 NSCLC): 0.915 µM
- TGI (HOP-92 NSCLC): 0.463 µM
- TGI (HS 578T breast): > 1 µM
- TGI (HT29 colon): 0.284 µM
- TGI (IGROV1 ovarian): > 1 µM
- TGI (K-562 leukemia): 0.419 µM
- TGI (KM12 colon): 0.85 µM
- TGI (LOX IMVI melanoma): 0.302 µM
- TGI (M14 melanoma): 0.822 µM
- TGI (MALME-3M melanoma): 0.312 µM
- TGI (MCF7 breast): > 1 µM
- TGI (MDA-MB-231 breast): 0.958 µM
- TGI (MDA-MB-435): 0.853 µM
- TGI (MDA-N): 0.529 µM
- TGI (MOLT-4 leukemia): 0.478 µM
- TGI (NCI-H226 lung): > 1 µM
- TGI (NCI-H23 lung): > 1 µM
- TGI (NCI-H460 lung): > 1 µM
- TGI (NCI-H522 lung): 0.579 µM
- TGI (NCI/ADR-RES ovarian): > 1 µM
- TGI (OVCAR-3 ovarian): > 1 µM
- TGI (OVCAR-4 ovarian): > 1 µM
- TGI (OVCAR-8 ovarian): > 1 µM
- TGI (PC-3 prostate): > 1 µM
- TGI (RPMI-8226 leukemia): 0.387 µM
- TGI (SF-268 CNS): > 1 µM
- TGI (SF-295 CNS): 0.373 µM
- TGI (SF-539 CNS): > 1 µM
- TGI (SK-MEL-2 melanoma): 0.247 µM
- TGI (SK-MEL-28 melanoma): > 1 µM
- TGI (SK-MEL-5 melanoma): > 1 µM
- TGI (SK-OV-3 ovarian): 0.358 µM
- TGI (SN12C renal): > 1 µM
- TGI (SNB-19 CNS): > 1 µM
- TGI (SR leukemia): 0.488 µM
- TGI (SW-620 colon): > 1 µM
- TGI (T-47D breast): 0.681 µM
- TGI (TK-10 renal): > 1 µM
- TGI (U251 CNS): > 1 µM
- TGI (UACC-257 melanoma): 0.942 µM
- TGI (UACC-62 melanoma): 0.345 µM
- TGI (UO-31 renal): > 1 µM

SMILES: COc1ccc2c(c1)/C(=C\c1c(Cl)[nH]c3ccccc13)C(=O)N2
- TGI (786-0 renal): 17 µM
- TGI (A498 renal): 23.7 µM
- TGI (A549 NSCLC): 19 µM
- TGI (ACHN renal): 20.8 µM
- TGI (BT-549 breast): 14.8 µM
- TGI (CAKI-1 renal): 27.1 µM
- TGI (CCRF-CEM leukemia): 13.4 µM
- TGI (COLO 205 colon): 6.6 µM
- TGI (DU-145 prostate): 56.7 µM
- TGI (EKVX NSCLC): 18.5 µM
- TGI (HCC-2998 colon): 13.3 µM
- TGI (HCT-116 colon): 10.8 µM
- TGI (HCT-15 colon): 37.2 µM
- TGI (HL-60(TB) leukemia): 10.8 µM
- TGI (HOP-62 NSCLC): 17.9 µM
- TGI (HOP-92 NSCLC): 12.5 µM
- TGI (HS 578T breast): 9.88 µM
- TGI (HT29 colon): 5.2 µM
- TGI (IGROV1 ovarian): 9.78 µM
- TGI (K-562 leukemia): 12.2 µM
- TGI (KM12 colon): 15.1 µM
- TGI (LOX IMVI melanoma): 17.5 µM
- TGI (M14 melanoma): 16.2 µM
- TGI (MALME-3M melanoma): 19.2 µM
- TGI (MCF7 breast): 13.7 µM
- TGI (MDA-MB-231 breast): 26.5 µM
- TGI (MDA-MB-435): 3.82 µM
- TGI (MDA-N): 3.83 µM
- TGI (MOLT-4 leukemia): 41 µM
- TGI (NCI-H226 lung): 70.8 µM
- TGI (NCI-H23 lung): 25 µM
- TGI (NCI-H460 lung): 14.5 µM
- TGI (NCI-H522 lung): 11.5 µM
- TGI (NCI/ADR-RES ovarian): 8.03 µM
- TGI (OVCAR-3 ovarian): 23 µM
- TGI (OVCAR-5 ovarian): 26.8 µM
- TGI (OVCAR-8 ovarian): 23.8 µM
- TGI (PC-3 prostate): 18 µM
- TGI (RPMI-8226 leukemia): 16.3 µM
- TGI (RXF 393 renal): 13.4 µM
- TGI (SF-268 CNS): 16 µM
- TGI (SF-295 CNS): 6.26 µM
- TGI (SF-539 CNS): 12.5 µM
- TGI (SK-MEL-2 melanoma): 16.1 µM
- TGI (SK-MEL-28 melanoma): 8.05 µM
- TGI (SK-MEL-5 melanoma): 14.8 µM
- TGI (SK-OV-3 ovarian): 9.87 µM
- TGI (SN12C renal): 24.7 µM
- TGI (SNB-19 CNS): 19.3 µM
- TGI (SR leukemia): 8.25 µM
- TGI (SW-620 colon): 13.4 µM
- TGI (T-47D breast): > 100 µM
- TGI (TK-10 renal): 23 µM
- TGI (U251 CNS): 13.2 µM
- TGI (UACC-257 melanoma): 20.4 µM
- TGI (UACC-62 melanoma): 20 µM
- TGI (UO-31 renal): 20.2 µM
